These results are taken from patent publication US20260201008A1, “SECRETIN-DERIVED GLP1R SELECTIVE AGONISTS” (GUBRA A/S, priority 2023, published 2026).

One data set deals with GLP1R (Homo sapiens, UniProt P43220). The experiment in a line: hGLP1R potency, cAMP accumulation in CHO-K1 cells stably overexpressing hGLP1R. The data set is classed as cell-based. Also noted: host or cells: CHO-K1. The note with it: for EC50: cAMP accumulation, CHO-K1 cells stably overexpressing hGLP1R, read-out: hGLP1R potency (pEC50) (converted); for SCTR EC50/GLP1R EC50 ratio: selectivity ratio, hSCTR vs hGLP1R, cAMP accumulation in CHO-K1 cells. The method, boiled down:
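Cells were plated in DPBS with 0.05% casein and 0.5 mM IBMX, then stimulated for 30 min at room temperature with test compound. cAMP was read by TR-FRET after one hour. EC50 came from variable-slope sigmoid nonlinear regression; purified peptides ran as 11-point 3-fold series, n=2.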
For orientation: Changes in cAMP serve as a functional read-out for many G protein-coupled receptors.

In a further data set the target is SCTR (Homo sapiens, UniProt P47872). The data set can be described thus: hSCTR potency, cAMP accumulation in CHO-K1 cells stably overexpressing hSCTR. Type of data set: cell-based. Details: alternatively Euroscreen ES-712-AF; FAST-0161L; host or cells: CHO-K1. The note with it: cAMP accumulation, CHO-K1 cells stably overexpressing hSCTR; read-out: hSCTR potency (pEC50) (converted). The method, boiled down:
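Division-arrested CHO-K1 cells stably expressing hSCTR were plated in DPBS with 0.05% casein and 0.5 mM IBMX, then stimulated with test peptide for 30 min at room temperature. cAMP was read by HTRF after one hour. EC50 came from variable-slope sigmoidal nonlinear regression.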

A short description of data set [1]: Turbidity of crude library peptides (absorbance at 600 nm). Type of data set: physicochemical. The note with it: Physical stability of peptides. Put shortly: (§1)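 Values reflect mean ThT emission (ex 450, em 480 nm) over 72 h at 40° C, read every 10 min after 5 min shaking at 700 rpm, plus a single initial absorbance at 600 nm for turbidity. Peptides were at 267 μM, pH 4.0 acetate or pH 7.0 phosphate (50 mM), with 4 μM ThT.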

A short description of data set [2]: Fibril formation of crude library peptides (Thioflavin T). The data set is classed as physicochemical. Details: key: average ThT fluorescence emission at 480 nm (ex 450 nm), raw units. The note with it: Physical stability of peptides. The method, boiled down: as §1

Numbered stars: 1 amine (or outer) side, 2 acyl side, 3 side chain; on linkers, the order of the positions; unused ones are H or OH. Square brackets hold non-standard residues; d marks the D form. Side chains are listed from the residue outwards. Peptide text beside a SMILES is read from it. * marks the point of attachment. C20 diacid = O=C(O)CCCCCCCCCCCCCCCCCCC(=O)*; γGlu = O=C(O)[C@H](CCC(=O)[*:2])N[*:1]; AEEA = NCCOCCOCC(=O)O; Aib = CC(C)(N)C(=O)O

Sequence of GLP1R (P43220 24-463): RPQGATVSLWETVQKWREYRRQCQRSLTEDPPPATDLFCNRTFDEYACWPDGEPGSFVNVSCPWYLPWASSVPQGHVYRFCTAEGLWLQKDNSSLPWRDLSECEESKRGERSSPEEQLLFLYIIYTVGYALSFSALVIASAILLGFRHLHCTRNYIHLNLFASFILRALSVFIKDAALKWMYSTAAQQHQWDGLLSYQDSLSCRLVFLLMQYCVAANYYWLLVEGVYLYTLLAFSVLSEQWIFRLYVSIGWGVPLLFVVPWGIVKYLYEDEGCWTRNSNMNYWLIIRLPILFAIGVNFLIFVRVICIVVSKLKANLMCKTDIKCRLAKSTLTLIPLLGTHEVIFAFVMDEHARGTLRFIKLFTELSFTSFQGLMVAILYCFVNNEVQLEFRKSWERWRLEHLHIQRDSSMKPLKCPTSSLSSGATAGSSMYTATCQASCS
Sequence of SCTR (P47872 23-440): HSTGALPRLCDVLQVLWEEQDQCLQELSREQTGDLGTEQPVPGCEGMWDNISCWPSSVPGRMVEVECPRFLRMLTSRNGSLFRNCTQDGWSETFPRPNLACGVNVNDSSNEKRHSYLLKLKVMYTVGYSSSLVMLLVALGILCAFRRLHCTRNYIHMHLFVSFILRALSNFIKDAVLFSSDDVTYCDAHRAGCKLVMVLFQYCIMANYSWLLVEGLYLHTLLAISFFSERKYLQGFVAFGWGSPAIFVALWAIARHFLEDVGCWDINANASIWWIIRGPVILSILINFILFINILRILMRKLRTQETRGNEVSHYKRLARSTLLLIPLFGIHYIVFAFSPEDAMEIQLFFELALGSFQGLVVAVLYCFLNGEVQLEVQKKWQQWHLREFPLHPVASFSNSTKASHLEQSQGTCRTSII

`CC[C@H](C)[C@H](NC(=O)[C@H](Cc1ccccc1)NC(=O)[C@H](CCCNC(=N)N)NC(=O)[C@H](CCC(N)=O)NC(=O)[C@H](CC(C)C)NC(=O)[C@H](C)NC(=O)[C@H](C)NC(=O)CNC(=O)[C@H](CCC(=O)O)NC(=O)[C@H](CC(C)C)NC(=O)[C@H](CC(C)C)NC(=O)C(C)(C)NC(=O)[C@H](CO)NC(=O)[C@H](Cc1c[nH]c2ccccc12)NC(=O)[C@H](CC(=O)O)NC(=O)[C@H](CO)NC(=O)[C@@H](NC(=O)[C@H](Cc1ccccc1)NC(=O)[C@@H](NC(=O)CNC(=O)[C@H](CCC(=O)O)NC(=O)C(C)(C)NC(=O)[C@@H](N)Cc1c[nH]cn1)[C@@H](C)O)[C@@H](C)O)C(=O)N[C@@H](CCC(N)=O)C(=O)N[C@@H](Cc1c[nH]c2ccccc12)C(=O)N[C@@H](CC(C)C)C(=O)N[C@H](C(N)=O)C(C)C` [compound 192] (H-H[Aib]EGTFTSDWS[Aib]LLEGAALQRFIQWLV-NH2): at GLP1R, the EC50 was 0.126 nM and the “SCTR EC50/GLP1R EC50 ratio” value came to 383. Besides, the EC50 at SCTR is 50.1 nM. The “Turbidity (pH 7)” value in data set [1] was found to be 0.54. Besides, in data set [2], the Fibril formation was found to be 29535.

Turning to `CC[C@H](C)[C@H](NC(=O)[C@H](Cc1ccccc1)NC(=O)[C@H](CCCNC(=N)N)NC(=O)[C@H](CCC(N)=O)NC(=O)[C@H](CC(C)C)NC(=O)[C@H](C)NC(=O)[C@H](C)NC(=O)CNC(=O)[C@H](CCC(=O)O)NC(=O)[C@H](CC(C)C)NC(=O)[C@H](CC(C)C)NC(=O)[C@H](CCC(=O)O)NC(=O)[C@H](CO)NC(=O)[C@H](Cc1c[nH]c2ccccc12)NC(=O)[C@H](CC(=O)O)NC(=O)[C@H](CO)NC(=O)[C@@H](NC(=O)[C@H](Cc1ccccc1)NC(=O)[C@@H](NC(=O)CNC(=O)[C@H](CCC(=O)O)NC(=O)C(C)(C)NC(=O)[C@@H](N)Cc1c[nH]cn1)[C@@H](C)O)[C@@H](C)O)C(=O)N[C@@H](CCC(N)=O)C(=O)N[C@@H](Cc1c[nH]c2ccccc12)C(=O)N[C@@H](CC(C)C)C(=O)N[C@H](C(N)=O)C(C)C` [compound 193] (H-H[Aib]EGTFTSDWSELLEGAALQRFIQWLV-NH2), at GLP1R, the EC50 was 0.0251 nM and the “SCTR EC50/GLP1R EC50 ratio” value is recorded as 558. Also, the EC50 at SCTR was 12.6 nM. In addition, the “Turbidity (pH 7)” value in data set [1] is on record as 0.13. This compound displayed a Fibril formation in data set [2] of 26948.

Consider `CC[C@H](C)[C@H](NC(=O)[C@H](Cc1ccccc1)NC(=O)[C@H](CCCNC(=N)N)NC(=O)[C@H](CCC(N)=O)NC(=O)[C@H](CC(C)C)NC(=O)[C@H](C)NC(=O)[C@H](C)NC(=O)CNC(=O)[C@H](CCC(=O)O)NC(=O)[C@H](CC(C)C)NC(=O)[C@H](CC(C)C)NC(=O)[C@H](CCCNC(=N)N)NC(=O)[C@H](CO)NC(=O)[C@H](Cc1ccc(O)cc1)NC(=O)[C@H](CC(=O)O)NC(=O)[C@H](CO)NC(=O)[C@@H](NC(=O)[C@H](Cc1ccccc1)NC(=O)[C@@H](NC(=O)CNC(=O)[C@H](CCC(=O)O)NC(=O)C(C)(C)NC(=O)[C@@H](N)Cc1c[nH]cn1)[C@@H](C)O)[C@@H](C)O)C(=O)N[C@@H](CCC(N)=O)C(=O)N[C@@H](Cc1c[nH]c2ccccc12)C(=O)N[C@@H](CC(C)C)C(=O)N[C@H](C(N)=O)C(C)C` [compound 194] (H-H[Aib]EGTFTSDYSRLLEGAALQRFIQWLV-NH2), for which, on GLP1R, the EC50 is 0.0126 nM and the “SCTR EC50/GLP1R EC50 ratio” value turned out to be 114. The EC50 at SCTR was 1.58 nM. Further, in data set [1], the “Turbidity (pH 7)” value was 0.27. This compound came in with a Fibril formation in data set [2] of 8355.

Regarding `CC[C@H](C)[C@H](NC(=O)[C@H](Cc1ccccc1)NC(=O)[C@H](CCCNC(=N)N)NC(=O)[C@H](CCC(N)=O)NC(=O)[C@H](CC(C)C)NC(=O)[C@H](C)NC(=O)[C@H](C)NC(=O)CNC(=O)[C@H](CCC(=O)O)NC(=O)[C@H](CC(C)C)NC(=O)[C@H](CC(C)C)NC(=O)CNC(=O)[C@H](CO)NC(=O)[C@H](Cc1ccc(O)cc1)NC(=O)[C@H](CC(=O)O)NC(=O)[C@H](CO)NC(=O)[C@@H](NC(=O)[C@H](Cc1ccccc1)NC(=O)[C@@H](NC(=O)CNC(=O)[C@H](CCC(=O)O)NC(=O)C(C)(C)NC(=O)[C@@H](N)Cc1c[nH]cn1)[C@@H](C)O)[C@@H](C)O)C(=O)N[C@@H](CCC(N)=O)C(=O)N[C@@H](Cc1c[nH]c2ccccc12)C(=O)N[C@@H](CC(C)C)C(=O)N[C@H](C(N)=O)C(C)C` [compound 195] (H-H[Aib]EGTFTSDYSGLLEGAALQRFIQWLV-NH2), the EC50 on GLP1R is 0.0251 nM; on SCTR it was 10 nM. On GLP1R, the “SCTR EC50/GLP1R EC50 ratio” value came to 419. Moreover, the “Turbidity (pH 7)” value in data set [1] was found to be 0.25. In data set [2], this compound returned a Fibril formation of 144234.

For `CC(C)C[C@H](NC(=O)[C@H](Cc1ccc(O)cc1)NC(=O)[C@H](CO)NC(=O)[C@H](Cc1ccc(O)cc1)NC(=O)[C@H](CC(=O)O)NC(=O)[C@H](CO)NC(=O)[C@@H](NC(=O)[C@H](Cc1ccccc1)NC(=O)[C@@H](NC(=O)CNC(=O)[C@H](CCC(=O)O)NC(=O)C(C)(C)NC(=O)[C@@H](N)Cc1c[nH]cn1)[C@@H](C)O)[C@@H](C)O)C(=O)N[C@@H](CCCCNC(=O)COCCOCCNC(=O)COCCOCCNC(=O)CC[C@H](NC(=O)CCCCCCCCCCCCCCCCCCC(=O)O)C(=O)O)C(=O)N[C@@H](CCC(=O)O)C(=O)N[C@@H](CCC(=O)O)C(=O)N[C@@H](C)C(=O)NC(C)(C)C(=O)N[C@@H](CC(C)C)C(=O)N[C@@H](CCC(N)=O)C(=O)N[C@@H](CCCNC(=N)N)C(=O)N[C@@H](Cc1ccccc1)C(=O)N[C@@H](CC(C)C)C(=O)N[C@@H](CCC(=O)O)C(=O)N[C@@H](Cc1c[nH]cn1)C(=O)N[C@@H](CC(C)C)C(=O)N[C@H](C(N)=O)C(C)C` [compound 196] (H-H[Aib]EGTFTSDYSYLK([AEEA-AEEA-γGlu-C20 diacid])EEA[Aib]LQRFLEHLV-NH2), at GLP1R, the EC50 is 0.0126 nM and the “SCTR EC50/GLP1R EC50 ratio” value stood at 1743. Also, the EC50 at SCTR is 20 nM. Besides, the “Turbidity (pH 7)” value in data set [1] came to 0.08. This compound showed a Fibril formation in data set [2] of 5187.

With `CC[C@H](C)[C@H](NC(=O)[C@H](Cc1ccccc1)NC(=O)[C@H](CCCNC(=N)N)NC(=O)[C@H](CCC(N)=O)NC(=O)[C@H](CC(C)C)NC(=O)[C@H](C)NC(=O)[C@H](C)NC(=O)CNC(=O)[C@H](CCC(=O)O)NC(=O)[C@H](CC(C)C)NC(=O)[C@H](CC(C)C)NC(=O)C(C)(C)NC(=O)[C@H](CO)NC(=O)[C@H](Cc1ccc(O)cc1)NC(=O)[C@H](CC(=O)O)NC(=O)[C@H](CO)NC(=O)[C@@H](NC(=O)[C@H](Cc1ccccc1)NC(=O)[C@@H](NC(=O)CNC(=O)[C@H](CCC(=O)O)NC(=O)C(C)(C)NC(=O)[C@@H](N)Cc1c[nH]cn1)[C@@H](C)O)[C@@H](C)O)C(=O)N[C@@H](CCC(N)=O)C(=O)N[C@@H](Cc1c[nH]c2ccccc12)C(=O)N[C@@H](CC(C)C)C(=O)N[C@H](C(N)=O)C(C)C` [compound 197] (H-H[Aib]EGTFTSDYS[Aib]LLEGAALQRFIQWLV-NH2), the EC50 at GLP1R is 0.0158 nM; on SCTR, 7.94 nM. Moreover, on GLP1R, the “SCTR EC50/GLP1R EC50 ratio” value is on record as 492. The “Turbidity (pH 7)” value in data set [1] turned out to be 0.21. In data set [2], the Fibril formation was found to be 7498.
